US20200008426A1, “ACTIVE COMPOUND COMBINATIONS” (BAYER AKTIENGESELLSCHAFT, priority 2017, published 2020)
Where two headings read alike, the source gives them in different places.

Tests used:
[1] = system: Puccinia triticina; assay: In vivo preventive Puccinia triticina test (wheat); details: Puccinia triticina, 192 h, 8 days after inoculation, read-out: Efficacy in % found; for pest or weed control at 20 ppm: 20 ppm a.i.; for pest or weed control at 40 ppm: 40 ppm a.i.; for pest or weed control at 80 ppm: 80 ppm a.i.; for pest or weed control at 7.5 ppm: 7.5 ppm a.i.; for pest or weed control at 15 ppm: 15 ppm a.i.; for pest or weed control at 30 ppm: 30 ppm a.i.; for pest or weed control at 250 ppm: 250 ppm a.i.
Description: After the spray coating has been dried, the plants are sprayed with a spore suspension of Puccinia triticina.
The test is evaluated 8 days after the inoculation.

[2] = system: Septoria tritici; assay: In vivo preventive Septoria tritici test (wheat); details: Zymoseptoria tritici, 504 h, 21 days after inoculation, read-out: Efficacy in % found; for pest or weed control at 40 ppm: 40 ppm a.i.; for pest or weed control at 125 ppm: 125 ppm a.i.; for pest or weed control at 250 ppm: 250 ppm a.i.
Description: After the spray coating has been dried, the plants are sprayed with a spore suspension of Septoria tritici.
The test is evaluated 21 days after the inoculation.

[3] = system: Fusarium culmorum; assay: In vitro-Test with Fusarium culmorum; type: cell-based
[4] = system: Rhizoctonia solani; assay: In vitro-Test with Rhizoctonia solani; type: cell-based
[5] = system: fish (Danio rerio) embryos; assay: In vivo ecotoxicity screening test on fish (Danio rerio); details: active compound alone; fish embryos, 96 h, 28.5° C.
Description: (§1) with ECxi the Effect Concentration (EC) of each chemical i (in ppm) causing x % effect on the ecotoxicity test endpoint.
(§2) For each compound combination, the predicted ECx value is calculated. It is then compared to an experimentally measured value. The ratio of predicted versus measured effect for the combination (thereafter called the Model Deviation Ratio or MDR) is then calculated.
(§3) The environmental effect of the compound combinations was measured experimentally in laboratory ecotoxicity screening studies with fish (Danio rerio). […] Mortality was recorded after 96 h for each tested concentration and a reference control. […] Then, the MDR values were calculated.
(§4) • Solvent: 0.5% by weight dimethyl sulfoxide
(§5) This concentrate is then diluted with water to the desired a.i. concentration, leading to a maximal solvent concentration of 0.5% by weight. The compounds alone and the combinations were tested for five increasing concentrations between 0.01 and 1000 ppm a.i., (e.g. 0.1, 1.0, 10 and 100 ppm a.i). For the combinations, compounds A and B were mixed in a weight ratio of 5:1 to 1:5 and five increasing concentrations were tested for each ratio.

[6] = system: Sphaerotheca fuliginea; assay: In vivo preventive test on Sphaerotheca (cucumbers); details: 7 days after inoculation
[7] = system: Pyrenophora teres; assay: In vitro-Test with Pyrenophora teres; type: cell-based
[8] = system: Pyricularia oryzae; type: cell-based
[9] = system: Ustilago avenae; assay: In vitro-Test with Ustilago avenae; type: cell-based; details: compound alone
[10] = In vivo ecotoxicity screening test on fish (Danio rerio); details: Danio rerio, in vivo, other: exposure of embryos to the aqueous preparation
Description: as §1, §2, §3, §4, §5

[11] = system: Venturia inaequalis; assay: In vivo preventive test on Venturia (apples); details: Table E2, 10 days after inoculation
Description: The test is evaluated 10 days after the inoculation.

[12] = system: Blumeria graminis f.sp. hordei; assay: In vivo preventive Blumeria test (barley); details: Table F2, 7 days after inoculation
[13] = system: Leptosphaeria nodorum; assay: In vitro-Test with Leptosphaeria nodorum; type: cell-based; details: 0.04 ppm
[14] = system: Phakopsora pachyrhizi; assay: In vivo preventive test on Phakopsora (soybeans); details: Table C3, 7 days after inoculation
[15] = system: Botrytis cinerea; assay: In vitro-Test with Botrytis cinerea; type: cell-based

CC(C)C1CCC(Cc2ccc(Cl)cc2)C1(O)Cn1cncn1 (centres unmarked) [Example 1.012, ipconazole]
pest or weed control at 20 ppm [1]: 0% | pest or weed control at 40 ppm [1]: 44% | pest or weed control at 80 ppm [1]: 100% | pest or weed control at 20 ppm ([1]; Table H1): 0% | pest or weed control at 40 ppm ([1]; Table H1): 67% | pest or weed control at 80 ppm ([1]; Table H1): 89% | pest or weed control at 20 ppm ([2]; 20 ppm a.i.): 0% | pest or weed control at 40 ppm [2]: 0% | pest or weed control at 80 ppm ([2]; 80 ppm a.i.): 0% | Efficacy % ([3]; 0.04 ppm): 7% | Efficacy % ([3]; 0.2 ppm): 13% | Efficacy % ([3]; 1 ppm): 96% | Efficacy % ([3]; 5 ppm): 99% | Efficacy % ([4]; 0.04 ppm): 35% | Efficacy % ([4]; 0.2 ppm): 96% | Ecotoxicity LC50-96 h found [5]: 6.57 ppm a.i. | Efficacy in % found ([6]; Table D1, 2.5 ppm a.i.): 26% | Efficacy in % found ([6]; Table D1, 5 ppm a.i.): 87% | Efficacy in % found ([6]; Table D1, 10 ppm a.i.): 100%

CC(C)c1ccc(Cl)cc1CN(C(=O)c1c(C(F)F)nn(C)c1F)C1CC1 [Example 2.038, N-(5-chloro-2-isopropylbenzyl)-N-cyclopropyl-3-(difluoromethyl)-5-fluoro-1-methyl-1H-pyrazole-4-carboxamide]
pest or weed control at 7.5 ppm [1]: 22% | pest or weed control at 15 ppm [1]: 33% | pest or weed control at 30 ppm [1]: 44% | pest or weed control at 7.5 ppm ([1]; Table H1): 33% | pest or weed control at 15 ppm ([1]; Table H1): 33% | pest or weed control at 30 ppm ([1]; Table H1): 33% | Efficacy % ([7]; 0.8 ppm): 57% | Efficacy % ([7]; 4 ppm): 82% | Efficacy % ([7]; 20 ppm): 55% | Efficacy % ([8]; 0.8 ppm): 0% | Efficacy % ([8]; 4 ppm): 51% | Efficacy % ([8]; 20 ppm): 75% | Efficacy % ([9]; 0.8 ppm): 43% | Efficacy % ([9]; 4 ppm): 49% | Efficacy % ([9]; 20 ppm): 52% | LC50 at 96 h [10]: 1.74 µg/mL | Efficacy in % found ([6]; Table D3, 1 ppm a.i.): 40% | Efficacy in % found ([6]; Table D3, 2 ppm a.i.): 93% | Efficacy in % found ([6]; Table D3, 4 ppm a.i.): 98%

N#Cc1c(Cl)c(Cl)c(Cl)c(C#N)c1Cl [Example 5.004, chlorothalonil]
Efficacy in % found ([11]; 12.5 ppm a.i.): 24% | Efficacy in % found ([11]; 25 ppm a.i.): 14% | Efficacy in % found ([11]; 50 ppm a.i.): 93% | Efficacy in % found ([12]; 62.5 ppm a.i.): 22% | Efficacy in % found ([12]; 125 ppm a.i.): 44% | Efficacy in % found ([12]; 250 ppm a.i.): 44% | pest or weed control at 62.5 ppm ([1]; 62.5 ppm a.i.): 0% | pest or weed control at 250 ppm [1]: 40% | pest or weed control at 62.5 ppm ([2]; 62.5 ppm a.i.): 0% | pest or weed control at 125 ppm [2]: 0% | pest or weed control at 250 ppm [2]: 14% | Efficacy % [13]: 0% | Efficacy in % found ([14]; 25 ppm a.i.): 8% | Efficacy in % found ([14]; 50 ppm a.i.): 0%

CC1(C)N=C(c2cnc3ccccc3c2)c2ccccc2C1(F)F [Example 15.047, 3-(4,4-difluoro-3,3-dimethyl-3,4-dihydroisoquinolin-1-yl)quinoline]
pest or weed control at 125 ppm ([1]; 125 ppm a.i.): 11% | pest or weed control at 250 ppm [1]: 11% | pest or weed control at 500 ppm ([1]; 500 ppm a.i.): 22% | pest or weed control at 125 ppm [2]: 0% | pest or weed control at 250 ppm [2]: 0% | pest or weed control at 500 ppm ([2]; 500 ppm a.i.): 0% | Efficacy % ([15]; 1 ppm): 0% | Efficacy % ([15]; 5 ppm): 0% | Efficacy % ([3]; 0.04 ppm): 83% | Efficacy % ([3]; 0.2 ppm): 100% | Efficacy % ([7]; 0.04 ppm): 28% | Efficacy % ([7]; 0.2 ppm): 76% | Efficacy % ([7]; 1 ppm): 64% | Efficacy % ([4]; 1 ppm, compound alone): 0% | Efficacy % ([4]; 5 ppm, compound alone): 0% | LC50 at 96 h [10]: 7.82 µg/mL | Efficacy in % found ([6]; Table D2, 2.5 ppm a.i.): 0% | Efficacy in % found ([6]; Table D2, 5 ppm a.i.): 0% | Efficacy in % found ([6]; Table D2, 10 ppm a.i.): 8%

CC(O)(Cn1cncn1)c1ccc(Oc2ccc(Cl)cc2)nc1C(F)(F)F (centres unmarked) [I.01, 2-[6-(4-chlorophenoxy)-2-(trifluoromethyl)pyridin-3-yl]-1-(1H-1,2,4-triazol-1-yl)propan-2-ol]
pest or weed control at 20 ppm [1]: 30% | pest or weed control at 40 ppm [1]: 50% | pest or weed control at 80 ppm [1]: 60% | pest or weed control at 40 ppm [2]: 63% | LC50 at 96 h [10]: 6.21 µg/mL

CC(O)(Cn1cncn1)c1ccc(Oc2ccc(Br)cc2)nc1C(F)(F)F (centres unmarked) [I.59, 2-[6-(4-bromophenoxy)-2-(trifluoromethyl)pyridin-3-yl]-1-(1H-1,2,4-triazol-1-yl)propan-2-ol]
LC50 at 96 h [10]: 6 µg/mL
